“Also recorded” adds a separate entry of the source. Blank lines part the entries; values can stand above or below the compound they belong to.
Legend:
[1] = previous work; cited from earlier work
CD-1 mice [2] = test: Bone calcium mobilization: serum calcium of mice fed 0.02% calcium diet after single oral dose; type: in vivo; conditions: for Bone Calcium Mobilization (serum calcium): single oral gavage, 0.02% calcium diet; for Bone calcium mobilization activity (bone resorption in vivo), in words: single oral dose, mice on 0.02% calcium diet
From the text: Goal: Determine whether or not TMM has bone calcium mobilization activity and how it compares to 1,25(OH)2D3 and 2-methylene-19-nor-20(S)-1α, 25-(OH)2D3 (hereinafter referred to as 2MD).
5-6 week old CD-1 mice were placed in the +D mouse room and fed chow diet. They were allowed to acclimate for 5 days before being switched to a purified diet described by Yang et al (Arch. Biochem. Biphys. 303, 98, 1993) containing 0.02% calcium and 0.3% P. Two days after the diet switch, dose administration began. Experimental Design:
All animals were weighed prior to dosing. The animals were divided into groups containing 5 animals/group. All animals were administered the drug by oral gavage one time. The dose was delivered in 100 μl Neobee oil/25 g mouse. […] The rise in serum calcium comes from bone mobilization only since no calcium is available from the intestine.
Mice fed a 0.02% calcium diet can only elevate their serum calcium levels by resorbing bone because no calcium is available through intestinal absorption. […] At lower doses, there was no significant elevation of serum calcium. […] Thus, the importance of the 25-hydroxyl for bone calcium mobilization is illustrated.

CD-1 mice [3] = test: Intestinal calcium transport: serum calcium of alendronate-treated mice on 0.47% calcium diet; type: in vivo; conditions: FIG. 3
From the text: FIG. 3 is a graph illustrating serum calcium versus time of mice injected with vehicle plus alendronate, with 1α,25-dihydroxyvitamin D3 plus alendronate, or with 2-methylene-19-nor-20(S)-25-methyl-1α-hydroxycalciferol (TMM) plus alendronate. Since alendronate blocks bone resorption the rise in serum calcium reflects only intestinal absorption.
In this measurement, alendronate is used to block bone resorption so the rise in serum calcium is because of increased calcium absorption from the intestine.
Goal: Determine whether or not TMM has intestinal calcium transport activity and how it compares to 1,25(OH)2D3.
5-6 week old CD-1 mice were placed in the +D mouse room and fed chow diet. They were allowed to acclimate for 7 days before being switched to a diet containing 0.47% calcium.
All animals were weighed prior to dosing and divided into groups containing 5 animals/treatment group. […] Once all time points were collected, the serum was diluted 1:50 in 0.1% Lanthum Chloride and analyzed by atomic absorption spectrometry for determination of total serum calcium levels. • Group 1: Neobee oil+Alendronate (1.75 mg/kg bw) • Group 2: 40.5 ug 1,25(OH)2D3/kg bw+Alendronate (1.75 mg/kg bw) • Group 3: 4.5 ug TMM/kg bw+Alendronate (1.75 mg/kg bw) • Group 4: 13.5 ug TMM/kg bw+Alendronate (1.75 mg/kg bw) • Group 5: 40.5 ug TMM/kg bw+Alendronate (1.75 mg/kg bw) Results: […]

HL-60 promyelocytes = test: Differentiation of HL-60 promyelocytes into monocytes (NBT reduction); type: cell-based; conditions: compared with 1,25-(OH)2D3; FIG. 2
Protocol: FIG. 2 is a graph illustrating the percent HL-60 cell differentiation as a function of the concentration of 2-methylene-19-nor-20(S)-25-methyl-1α-hydroxycalciferol or 1α,25-dihydroxyvitamin D3; and
The differentiation of HL-60 promyelocytes into monocytes was determined as described by Ostrem et al (J. Biol. Chem. 262, 14164-14171, 1987).
Induction of differentiation of HL-60 promyelocytes to monocytes by 1α,25-(OH)2D3 and the synthesized vitamin D analog was determined by measuring the percentage of cells reducing nitro blue tetrazolium (NBT). The experiment was repeated three times. The values ED50 can be derived from dose-response curves (FIG. 2) and represent the analog concentration capable of inducing 50% maturation. Differentiation activity ratio can then be determined from the ratio of the analog average ED50 to the ED50 for 1α,25-(OH)2D3.

[4] = test system: porcine intestinal vitamin D receptor; test: Competitive binding to the porcine intestinal vitamin D receptor, displacement of [3H]-1,25-(OH)2-D3; conditions: compared with the native hormone 1,25-(OH)2D3; FIG. 1
Protocol: FIG. 1 is a graph illustrating the relative activity of 2-methylene-19-nor-20(S)-25-methyl-1α-hydroxycalciferol or 1α,25-dihydroxyvitamin D3 to compete for binding of [3H]-1,25-(OH)2—D3 to the vitamin D pig intestinal nuclear receptor;
Competitive binding of the analog to the porcine intestinal receptor was carried out by the method described by Dame et al (Biochemistry 25, 4523-4534, 1986).
Competitive binding of 1α, 25-(OH)2D3 and the synthesized vitamin D analog to the porcine intestinal vitamin D receptor was carried out in triplicate on two different occasions. ED50 values can be derived from dose-response curves (FIG. 1) and represent the analog concentration required for 50% displacement of the radiolabeled 1α,25-(OH)2D3 from the receptor protein. Binding ratio can then be determined from the ratio of the analog average ED50 to the ED50 for 1α,25-(OH)2D3.

SMILES: C=C1/C(=C\C=C2/CCC[C@]3(C)[C@@H]([C@H](C)CCCC(C)(C)O)CC[C@@H]23)C[C@@H](O)C[C@@H]1O [1α,25(OH)2D3, 1α,25-dihydroxyvitamin D3]
Intestinal calcium absorption activity relative to 2-methylene-19-nor-20(S)-1α, 25-(OH)2D3 [1]: about the same activity
Bone Calcium Mobilization (serum calcium) (CD-1 mice [2]; 50 μg/kg, 0 hr (predose)): 8.8 ± 0.2 mg/dL
Bone Calcium Mobilization (serum calcium) (CD-1 mice [2]; 50 μg/kg, 24 hr): 10.9 ± 0.1 mg/dL
Bone Calcium Mobilization (serum calcium) (CD-1 mice [2]; 50 μg/kg, 48 hr): 9.6 ± 0.3 mg/dL
Bone Calcium Mobilization (serum calcium) (CD-1 mice [2]; 50 μg/kg, 72 hr): 9.1 ± 0.2 mg/dL
Bone Calcium Mobilization (serum calcium) (CD-1 mice [2]; 450 μg/kg, 0 hr (predose)): 8.8 ± 0.2 mg/dL
Bone Calcium Mobilization (serum calcium) (CD-1 mice [2]; 450 μg/kg, 24 hr): 11.6 ± 0.3 mg/dL
Bone Calcium Mobilization (serum calcium) (CD-1 mice [2]; 450 μg/kg, 48 hr): 11.4 ± 0.7 mg/dL
Bone Calcium Mobilization (serum calcium) (CD-1 mice [2]; 450 μg/kg, 72 hr): 9.4 ± 0.4 mg/dL
Bone calcium mobilization activity (bone resorption in vivo), in words (CD-1 mice [2]; Table 1): effective at 50 μg/kg bw and 450 μg/kg bw

SMILES: C=C1[C@H](O)CC(=C/C=C2\CCC[C@]3(C)[C@@H]([C@@H](C)CCCC(C)(C)O)CC[C@@H]23)C[C@H]1O [2MD, 2-methylene-19-nor-20(S)-1α, 25-(OH)2D3]
Bone Calcium Mobilization (serum calcium) (CD-1 mice [2]; 0.5 μg/kg, 0 hr (predose)): 8.8 ± 0.3 mg/dL
Bone Calcium Mobilization (serum calcium) (CD-1 mice [2]; 0.5 μg/kg, 24 hr): 9.4 ± 0.2 mg/dL
Bone Calcium Mobilization (serum calcium) (CD-1 mice [2]; 0.5 μg/kg, 48 hr): 9.2 ± 0.2 mg/dL
Bone Calcium Mobilization (serum calcium) (CD-1 mice [2]; 0.5 μg/kg, 72 hr): 8.9 ± 0.2 mg/dL
Bone Calcium Mobilization (serum calcium) (CD-1 mice [2]; 1.5 μg/kg, 0 hr (predose)): 8.8 ± 0.2 mg/dL
Bone Calcium Mobilization (serum calcium) (CD-1 mice [2]; 1.5 μg/kg, 24 hr): 10.1 ± 0.1 mg/dL
Bone Calcium Mobilization (serum calcium) (CD-1 mice [2]; 1.5 μg/kg, 48 hr): 10.5 ± 0.2 mg/dL
Bone Calcium Mobilization (serum calcium) (CD-1 mice [2]; 1.5 μg/kg, 72 hr): 10.1 ± 0.2 mg/dL
Bone Calcium Mobilization (serum calcium) (CD-1 mice [2]; 4.5 μg/kg, 0 hr (predose)): 8.8 ± 0.0 mg/dL
Bone Calcium Mobilization (serum calcium) (CD-1 mice [2]; 4.5 μg/kg, 24 hr): 10.9 ± 0.2 mg/dL
Bone Calcium Mobilization (serum calcium) (CD-1 mice [2]; 4.5 μg/kg, 48 hr): 12.6 ± 0.5 mg/dL
Bone Calcium Mobilization (serum calcium) (CD-1 mice [2]; 4.5 μg/kg, 72 hr): 12.0 ± 0.4 mg/dL
Bone Calcium Mobilization (serum calcium) (CD-1 mice [2]; 13.5 μg/kg, 0 hr (predose)): 8.6 ± 0.1 mg/dL
Bone Calcium Mobilization (serum calcium) (CD-1 mice [2]; 13.5 μg/kg, 24 hr): 11.5 ± 0.4 mg/dL
Bone Calcium Mobilization (serum calcium) (CD-1 mice [2]; 13.5 μg/kg, 48 hr): 10.8 ± 0.5 mg/dL
Bone Calcium Mobilization (serum calcium) (CD-1 mice [2]; 13.5 μg/kg, 72 hr): 13.4 ± 0.6 mg/dL

Binding to the vitamin D receptor relative to 1,25-(OH)2D3 [4]: one-tenth as well
SMILES: C=C1[C@H](O)CC(=C/C=C2\CCC[C@]3(C)[C@@H]([C@@H](C)CCCC(C)(C)C)CC[C@@H]23)C[C@H]1O [TMM, 2-methylene-19-nor-20(S)-25-methyl-1α-hydroxycalciferol]
Intestinal calcium transport activity, in words (CD-1 mice [3]): more intestinal calcium transport activity than does 1,25(OH)2D3; also recorded: very strong effect on intestinal calcium absorption
HL-60 differentiation activity relative to 1,25-(OH)2D3 (HL-60 promyelocytes): essentially equal to that of 1,25-(OH)2D3
Bone Calcium Mobilization (serum calcium) (CD-1 mice [2]; 0.5 μg/kg, 0 hr (predose)): 8.7 ± 0.2 mg/dL
Bone Calcium Mobilization (serum calcium) (CD-1 mice [2]; 0.5 μg/kg, 24 hr): 8.8 ± 0.1 mg/dL
Bone Calcium Mobilization (serum calcium) (CD-1 mice [2]; 0.5 μg/kg, 48 hr): 8.7 ± 0.1 mg/dL
Bone Calcium Mobilization (serum calcium) (CD-1 mice [2]; 0.5 μg/kg, 72 hr): 8.7 ± 0.1 mg/dL
Bone Calcium Mobilization (serum calcium) (CD-1 mice [2]; 1.5 μg/kg, 0 hr (predose)): 8.7 ± 0.2 mg/dL
Bone Calcium Mobilization (serum calcium) (CD-1 mice [2]; 1.5 μg/kg, 24 hr): 8.7 ± 0.2 mg/dL
Bone Calcium Mobilization (serum calcium) (CD-1 mice [2]; 1.5 μg/kg, 48 hr): 8.6 ± 0.1 mg/dL
Bone Calcium Mobilization (serum calcium) (CD-1 mice [2]; 1.5 μg/kg, 72 hr): 8.9 ± 0.2 mg/dL
Bone Calcium Mobilization (serum calcium) (CD-1 mice [2]; 4.5 μg/kg, 0 hr (predose)): 8.5 ± 0.3 mg/dL
Bone Calcium Mobilization (serum calcium) (CD-1 mice [2]; 4.5 μg/kg, 24 hr): 9.0 ± 0.1 mg/dL
Bone Calcium Mobilization (serum calcium) (CD-1 mice [2]; 4.5 μg/kg, 48 hr): 8.9 ± 0.1 mg/dL
Bone Calcium Mobilization (serum calcium) (CD-1 mice [2]; 4.5 μg/kg, 72 hr): 8.8 ± 0.2 mg/dL
Bone Calcium Mobilization (serum calcium) (CD-1 mice [2]; 13.5 μg/kg, 0 hr (predose)): 8.8 ± 0.1 mg/dL
Bone Calcium Mobilization (serum calcium) (CD-1 mice [2]; 13.5 μg/kg, 24 hr): 9.7 ± 0.2 mg/dL
Bone Calcium Mobilization (serum calcium) (CD-1 mice [2]; 13.5 μg/kg, 48 hr): 9.9 ± 0.3 mg/dL
Bone Calcium Mobilization (serum calcium) (CD-1 mice [2]; 13.5 μg/kg, 72 hr): 9.5 ± 0.3 mg/dL
Activity in raising serum calcium (bone calcium mobilization) relative to 1,25-(OH)2D3 (CD-1 mice [2]; compared with 1,25-(OH)2D3, Table 1): approximately equal to 1,25-(OH)2D3; also recorded: below that of the native hormone
Activity in raising serum calcium (bone calcium mobilization) relative to 2MD (CD-1 mice [2]; compared with 2MD, Table 1): one-tenth as active as 2MD; also recorded: fell far below
Bone calcium mobilization activity (bone resorption in vivo), in words (CD-1 mice [2]; Table 1): only at the highest dose caused bone resorption in vivo; also recorded: very little bone calcium mobilization activity

From US6894037B2, “2-methylene-19-nor-20(S)-25-methyl-1α-hydroxycalciferol and its uses” (Wisconsin Alumni Research Foundation, priority 2003, dated 2005)
